Data taken from paper PMC4414788 (Chemico-biological interactions, 2015).

What was measured:
ALDH2 = target: T1, ALDH2 (Homo sapiens, UniProt P05091); assay: propionaldehyde dehydrogenase assay; format: biochemical; settings: read-out: ALDH2
T1 sequence (P05091 18-517): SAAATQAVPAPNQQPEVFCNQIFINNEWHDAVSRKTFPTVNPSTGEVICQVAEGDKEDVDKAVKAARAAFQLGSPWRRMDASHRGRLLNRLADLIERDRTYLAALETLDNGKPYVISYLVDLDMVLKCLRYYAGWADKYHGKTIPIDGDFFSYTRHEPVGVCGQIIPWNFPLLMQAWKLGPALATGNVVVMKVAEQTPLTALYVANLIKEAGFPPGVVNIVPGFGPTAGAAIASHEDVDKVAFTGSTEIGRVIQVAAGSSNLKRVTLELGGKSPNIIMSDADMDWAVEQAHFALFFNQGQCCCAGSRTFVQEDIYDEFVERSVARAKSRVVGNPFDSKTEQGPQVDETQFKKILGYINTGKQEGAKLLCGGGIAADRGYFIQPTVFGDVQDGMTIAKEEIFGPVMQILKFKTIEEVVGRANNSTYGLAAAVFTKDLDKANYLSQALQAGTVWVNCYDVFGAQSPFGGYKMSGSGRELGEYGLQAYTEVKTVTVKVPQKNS

ALDH1A3 = target: T2, ALDH1A3 (Homo sapiens, UniProt P47895); assay: propionaldehyde dehydrogenase assay; format: biochemical; settings: read-out: % inhibition at 10 μM
T2 sequence (P47895 2-512): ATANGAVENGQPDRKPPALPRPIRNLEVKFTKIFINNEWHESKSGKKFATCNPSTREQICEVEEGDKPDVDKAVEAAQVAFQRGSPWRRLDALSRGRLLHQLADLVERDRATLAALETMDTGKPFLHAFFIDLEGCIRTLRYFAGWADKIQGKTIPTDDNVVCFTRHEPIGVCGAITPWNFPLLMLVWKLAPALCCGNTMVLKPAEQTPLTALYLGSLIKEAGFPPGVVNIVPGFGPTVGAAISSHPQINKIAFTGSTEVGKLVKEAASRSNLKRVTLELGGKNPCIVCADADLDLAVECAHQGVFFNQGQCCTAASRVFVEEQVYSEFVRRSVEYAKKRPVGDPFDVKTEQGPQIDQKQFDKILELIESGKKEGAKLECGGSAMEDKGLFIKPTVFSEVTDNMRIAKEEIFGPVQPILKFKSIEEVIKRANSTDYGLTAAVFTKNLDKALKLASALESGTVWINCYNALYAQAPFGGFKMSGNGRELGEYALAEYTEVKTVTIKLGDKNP

ALDH1A2 = target: T3, ALDH1A2 (Homo sapiens, UniProt O94788); assay: propionaldehyde dehydrogenase assay; format: biochemical; settings: read-out: % inhibition at 10 μM
T3 sequence (O94788 1-518): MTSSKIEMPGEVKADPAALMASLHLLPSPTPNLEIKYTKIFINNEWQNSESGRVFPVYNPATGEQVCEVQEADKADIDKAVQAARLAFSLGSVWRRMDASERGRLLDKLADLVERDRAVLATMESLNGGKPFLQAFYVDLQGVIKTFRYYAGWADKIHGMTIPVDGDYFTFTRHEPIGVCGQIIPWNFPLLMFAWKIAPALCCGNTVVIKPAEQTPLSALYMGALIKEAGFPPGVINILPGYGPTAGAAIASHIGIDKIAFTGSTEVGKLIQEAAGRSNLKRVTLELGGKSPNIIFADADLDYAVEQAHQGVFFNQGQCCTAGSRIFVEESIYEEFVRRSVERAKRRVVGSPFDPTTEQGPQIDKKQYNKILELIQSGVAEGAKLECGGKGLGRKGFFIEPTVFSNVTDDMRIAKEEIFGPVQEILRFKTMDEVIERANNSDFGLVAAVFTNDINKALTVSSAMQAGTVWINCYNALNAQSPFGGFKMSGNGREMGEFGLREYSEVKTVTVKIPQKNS

ALDH1A1 [1] = target: T4, ALDH1A1 (Homo sapiens, UniProt P00352, N121S); assay: propionaldehyde dehydrogenase assay; format: biochemical; settings: read-out: ALDH1A1 ^*
T4 sequence (P00352 2-501 N121S): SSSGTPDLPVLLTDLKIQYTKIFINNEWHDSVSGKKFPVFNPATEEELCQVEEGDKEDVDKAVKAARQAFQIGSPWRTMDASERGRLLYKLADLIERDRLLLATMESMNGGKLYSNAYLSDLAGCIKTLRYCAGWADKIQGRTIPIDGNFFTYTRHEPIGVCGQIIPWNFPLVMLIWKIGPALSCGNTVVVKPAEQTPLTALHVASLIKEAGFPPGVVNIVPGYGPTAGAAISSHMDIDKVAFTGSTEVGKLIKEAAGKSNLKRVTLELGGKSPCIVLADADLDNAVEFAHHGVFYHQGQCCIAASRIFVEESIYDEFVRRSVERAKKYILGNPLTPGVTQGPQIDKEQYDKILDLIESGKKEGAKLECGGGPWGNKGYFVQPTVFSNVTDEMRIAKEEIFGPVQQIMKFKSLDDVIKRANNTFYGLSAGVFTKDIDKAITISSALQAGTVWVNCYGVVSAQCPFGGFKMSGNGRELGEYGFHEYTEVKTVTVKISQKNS

ALDH1B1 = target: T5, ALDH1B1 (Homo sapiens, UniProt P30837); assay: propionaldehyde dehydrogenase assay; format: biochemical; settings: read-out: % inhibition at 10 μM
T5 sequence (P30837 18-517): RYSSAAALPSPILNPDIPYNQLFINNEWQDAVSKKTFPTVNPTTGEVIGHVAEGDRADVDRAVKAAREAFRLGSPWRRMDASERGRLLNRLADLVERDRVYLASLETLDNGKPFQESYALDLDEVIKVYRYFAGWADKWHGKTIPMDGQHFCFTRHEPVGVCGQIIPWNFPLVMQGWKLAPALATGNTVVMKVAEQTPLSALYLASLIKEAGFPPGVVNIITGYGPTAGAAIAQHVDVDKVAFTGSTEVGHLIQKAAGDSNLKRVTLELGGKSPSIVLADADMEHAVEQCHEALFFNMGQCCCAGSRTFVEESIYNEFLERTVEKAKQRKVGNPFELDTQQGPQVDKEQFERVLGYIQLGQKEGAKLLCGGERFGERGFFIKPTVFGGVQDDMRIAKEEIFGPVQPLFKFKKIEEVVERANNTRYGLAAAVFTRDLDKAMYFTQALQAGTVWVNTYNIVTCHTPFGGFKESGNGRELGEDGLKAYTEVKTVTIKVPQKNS

ALDH1A1 [2] = target: T4, ALDH1A1; assay: biochemical; settings: read-out: % of control remaining
ALDH3A1 = target: T6, ALDH3A1 (Homo sapiens, UniProt P30838); assay: biochemical; settings: read-out: % of control remaining
T6 sequence (P30838 1-453): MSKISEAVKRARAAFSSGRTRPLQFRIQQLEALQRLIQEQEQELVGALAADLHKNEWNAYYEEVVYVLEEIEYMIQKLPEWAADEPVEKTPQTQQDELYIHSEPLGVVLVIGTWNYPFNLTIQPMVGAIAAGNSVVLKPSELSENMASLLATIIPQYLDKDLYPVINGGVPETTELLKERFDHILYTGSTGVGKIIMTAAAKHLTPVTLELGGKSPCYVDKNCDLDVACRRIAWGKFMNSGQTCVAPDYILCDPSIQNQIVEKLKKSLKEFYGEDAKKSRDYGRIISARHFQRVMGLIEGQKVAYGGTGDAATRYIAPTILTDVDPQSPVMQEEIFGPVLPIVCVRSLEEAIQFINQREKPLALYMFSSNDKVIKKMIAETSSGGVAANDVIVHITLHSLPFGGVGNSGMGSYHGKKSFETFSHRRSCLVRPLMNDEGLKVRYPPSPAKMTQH

Structure (SMILES)	activity at 10 µM (ALDH2) [%]	inhibition at 10 µM (ALDH1A3) [%]	inhibition at 10 µM (ALDH1A2) [%]	activity at 10 µM (ALDH1A1 [1]) [%]	inhibition at 10 µM (ALDH1B1) [%]	remaining activity at 10 µM (ALDH1A1 [2]) [%]	remaining activity at 10 µM (ALDH3A1) [%]
CCCc1c(C)c2cc3c(C)c(C)oc3cc2oc1=O [2P3, 2,3,5-trimethyl-6-propyl-7H-furo[3,2-g]chromen-7-one]	1.5	> 60	> 60	40.8	> 60	–	–
Cc1oc2cc3oc(=O)c(C)c(C)c3cc2c1C [2P4, 2,3,5,6-tetramethylfuro[3,2-g]chromen-7-one]	–	–	–	–	–	89.3	87.8
COC(=O)C(C)Oc1ccc2c(C)cc(=O)oc2c1 (centres unmarked) [2BS4, methyl-2-[(4-methyl-2-oxo-2H-chromen-7-yl)oxy]propanoate]	10.3	–	–	–	–	–	–
CCCc1c(C)c2cc3c(C)coc3cc2oc1=O [2CB5, 3,5-dimethyl-6-propylfuro[3,2-g]chromen-7-one]	7.6	–	–	58.6	–	–	87.6
